Laboratory results reported in ChEMBL document CHEMBL4342507, “Targeting YAP Degradation by a Novel 1,2,4-Oxadiazole Derivative via Restoration of the Function of the Hippo Pathway” (ACS Med Chem Lett, 2020).
Calls of active or inactive are those of the source. No cut-off for these calls is given here.

Experiments:
MDA-MB-231 [1] = assay: Cytotoxicity against human MDA-MB-231 cells assessed as reduction in cell viability at 0.2 to 1.2 uM by MTT assay; type: functional, cell-based; conditions: TDE = time-dependent effect
MDA-MB-231 [2] = assay: Downregulation of TAZ protein expression in human MDA-MB-231 cells at 0.25 to 1.5 uM measured after 24 to 48 hrs by immunoblotting analysis; type: functional, cell-based
PC-3 = assay: Effect on MST1 expression in human PC3 cells at 0.25 to 1.5 uM measured after 24 hrs by Western blot analysis; type: functional, cell-based
Homo sapiens = species on record: Homo sapiens; assay: Activation of MOB in human SUM159 cells assessed as phosphorylation at Thr35 residue at 0.25 to 1.25 uM measured after 12 hrs by Western blot analysis; type: cell-based
MDA-MB-231 [3] = assay: Antitumor activity against human MDA-MB-231 cells xenografted in athymic Nude-Foxn1nu BALB/c mouse assessed as tumor growth suppression at 200 mg/kg, po administered once daily via gavage for 40 days and measured twice a week during treatment period by caliper method relative to control; type: functional; conditions: MDA-MB-231, po, 960 h
[4] = Acute toxicity in athymic Nude-Foxn1nu BALB/c mouse xenografted with human MDA-MB-231 cells assessed as effect on serum AST level at 200 mg/kg, po administered once daily via gavage for 14 days; type: organism-based; conditions: in vivo, 336 h
Mus musculus = assay: Downregulation of cyclin D1 protein expression in tumor of athymic Nude-Foxn1nu BALB/c mouse xenografted with human MDA-MB-231 cells at 200 mg/kg, po administered once daily via gavage for 40 days by immunoblotting analysis; type: functional, organism-based

In the case of `CC(=O)Nc1ccc(NC(=O)Nc2cccc(-c3nc(-c4ccc(NC(=O)c5cccnc5)cc4Cl)no3)c2)cc1C(F)(F)F`, the Activity (MDA-MB-231 [1]) is reported as “Tde”, the inhibition (MDA-MB-231 [2]) is reported as “Active” and the Activity (PC-3) is reported as “inactive”. The Activity (Homo sapiens) was “inactive”, the inhibition in vivo at 200 mg/kg (MDA-MB-231 [3]) was 65% and the Activity [4] was “Non-Toxic”. The inhibition (Mus musculus) was “Active”.
